The molecules below were run against T1, S. aureus TrmD (Staphylococcus aureus, UniProt Q2FZ43) (assay: nanoSAR direct-to-biology FP displacement screening of crude triazoles). Details: crude triazole at 1 μM, assuming full conversion; 500 nM TrmD, 10 nM tracer 4; read-out: % displaced tracer.
T1 construct: made in house; host or cells: E. coli BL21
T1 sequence (Q2FZ43 1-245): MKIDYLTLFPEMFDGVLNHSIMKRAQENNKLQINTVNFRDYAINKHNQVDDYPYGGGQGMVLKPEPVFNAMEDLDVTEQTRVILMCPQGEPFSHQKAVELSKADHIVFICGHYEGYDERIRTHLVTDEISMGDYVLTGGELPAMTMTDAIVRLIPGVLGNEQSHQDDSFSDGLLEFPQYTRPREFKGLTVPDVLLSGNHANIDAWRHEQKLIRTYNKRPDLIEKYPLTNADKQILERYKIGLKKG
Format: binding
Method in brief: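 S. aureus TrmD (500 nM) with tracer 4 (10 nM) in Tris/NaCl/MgCl2/glycerol buffer, pH 7.5, was challenged with unpurified triazoles from in situ CuAAC of alkyne 7 with a 320-member azide library.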

How did the inhibition at 1 µM turn out when O=c1[nH]cnc2[nH]cc(-c3cn(Cc4nc5ccccc5o4)nn3)c12 [Compound 02G05, O=C1NC=NC=2NC=C(C=3N=NN(C3)CC=4Oc5c(N4)cccc5)C12] was run?
Its inhibition at 1 µM is 38%.

With COC[C@H](O)Cn1cc(-c2c[nH]c3nc[nH]c(=O)c23)nn1 [Compound 02G06, O=C1NC=NC=2NC=C(C=3N=NN(C3)C[C@@H](O)COC)C12] as the molecule, how does the inhibition at 1 µM read?
The inhibition at 1 µM was 13%.

How did the inhibition at 1 µM turn out when O=c1[nH]cnc2[nH]cc(-c3cn([C@H](CC4CCCCC4)c4ncccn4)nn3)c12 [Compound 02G07, O=C1NC=NC=2NC=C(C=3N=NN(C3)[C@@H](c4ncccn4)CC5CCCCC5)C12] was run?
The inhibition at 1 µM was 30%.

Which inhibition at 1 µM does the source give for CC(C)(C)OC(=O)N[C@@]12CC[C@@H](C[C@H]1n1cc(-c3c[nH]c4nc[nH]c(=O)c34)nn1)C2 [Compound 02G08, O=C(OC(C)(C)C)N[C@@]12[C@H](N3N=NC(C=4C=5C(=O)NC=NC5NC4)=C3)C[C@@H](C1)CC2] here?
The inhibition at 1 µM was 12%.

With Cc1ccccc1Cn1cc(-c2c[nH]c3nc[nH]c(=O)c23)nn1 [Compound 02G09, O=C1NC=NC=2NC=C(C=3N=NN(C3)Cc4c(cccc4)C)C12] as the molecule, how does the inhibition at 1 µM read?
The inhibition at 1 µM was 75%.

N#Cc1cnn(CCn2cc(-c3c[nH]c4nc[nH]c(=O)c34)nn2)c1 [Compound 02G10, O=C1NC=NC=2NC=C(C=3N=NN(C3)CCN4N=CC(C#N)=C4)C12] was tested. Which inhibition at 1 µM did it give?
The inhibition at 1 µM was 38%.

How did the inhibition at 1 µM turn out when O=c1[nH]cnc2[nH]cc(-c3cn([C@@H]4CCCc5cccnc54)nn3)c12 [Compound 02G11, O=C1NC=NC=2NC=C(C=3N=NN(C3)[C@H]4c5ncccc5CCC4)C12] was run?
Its inhibition at 1 µM is 18%.

How did the inhibition at 1 µM turn out when N[C@H]1C[C@@H](n2cc(-c3c[nH]c4nc[nH]c(=O)c34)nn2)C1 [Compound 02G12, O=C1NC=NC=2NC=C(C=3N=NN(C3)[C@@H]4C[C@H]([NH3+])C4)C12] was run?
Its inhibition at 1 µM is 31%.

CNC(=O)CCn1cc(-c2c[nH]c3nc[nH]c(=O)c23)nn1 [Compound 02H01, O=C1NC=NC=2NC=C(C=3N=NN(C3)CCC(=O)NC)C12] was tested. Which inhibition at 1 µM did it give?
The inhibition at 1 µM was 21%.

How did the inhibition at 1 µM turn out when N#Cc1cc(Cl)ccc1-n1cc(-c2c[nH]c3nc[nH]c(=O)c23)nn1 [Compound 02H02, Clc1cc(C#N)c(N2N=NC(C=3C=4C(=O)NC=NC4NC3)=C2)cc1] was run?
The inhibition at 1 µM was 0%.

For O=c1[nH]cnc2[nH]cc(-c3cn(Cc4ccc(F)cc4F)nn3)c12 [Compound 02H03, Fc1c(ccc(F)c1)CN2N=NC(C=3C=4C(=O)NC=NC4NC3)=C2], which inhibition at 1 µM is on record?
The inhibition at 1 µM was 49%.

How did the inhibition at 1 µM turn out when O=c1[nH]cnc2[nH]cc(-c3cn(C4CCNCC4)nn3)c12 [Compound 02H04, O=C1NC=NC=2NC=C(C=3N=NN(C3)C4CC[NH2+]CC4)C12] was run?
The inhibition at 1 µM was 28%.

For O=c1[nH]cnc2[nH]cc(-c3cn(CC(F)(F)c4ccccc4)nn3)c12 [Compound 02H05, FC(F)(c1ccccc1)CN2N=NC(C=3C=4C(=O)NC=NC4NC3)=C2], which inhibition at 1 µM is on record?
The inhibition at 1 µM was 46%.

With O=c1[nH]cnc2[nH]cc(-c3cn(C[C@H](O)Cc4cccc(F)c4)nn3)c12 [Compound 02H06, Fc1cc(ccc1)C[C@@H](O)CN2N=NC(C=3C=4C(=O)NC=NC4NC3)=C2] as the molecule, how does the inhibition at 1 µM read?
Its inhibition at 1 µM is 27%.

Which inhibition at 1 µM does the source give for O=c1[nH]cnc2[nH]cc(-c3cn(CCCN4CCSCC4)nn3)c12 [Compound 02H07, S1CC[NH+](CC1)CCCN2N=NC(C=3C=4C(=O)NC=NC4NC3)=C2] here?
Its inhibition at 1 µM is 59%.

How did the inhibition at 1 µM turn out when COc1ccc(-n2cc(-c3c[nH]c4nc[nH]c(=O)c34)nn2)cc1 [Compound 02H08, O=C1NC=NC=2NC=C(C=3N=NN(c4ccc(OC)cc4)C3)C12] was run?
The inhibition at 1 µM was 9%.

With C[C@H](c1ccccc1Cl)n1cc(-c2c[nH]c3nc[nH]c(=O)c23)nn1 [Compound 02H09, Clc1c(cccc1)[C@H](N2N=NC(C=3C=4C(=O)NC=NC4NC3)=C2)C] as the molecule, how does the inhibition at 1 µM read?
Its inhibition at 1 µM is 44%.

With O=c1[nH]cnc2[nH]cc(-c3cn([C@H]4CCn5cccc5C4)nn3)c12 [Compound 02H10, O=C1NC=NC=2NC=C(C=3N=NN(C3)[C@@H]4CC=5N(C=CC5)CC4)C12] as the molecule, how does the inhibition at 1 µM read?
The inhibition at 1 µM was 24%.

With C[C@H](c1ccc(Cl)cc1)n1cc(-c2c[nH]c3nc[nH]c(=O)c23)nn1 [Compound 02H11, Clc1ccc(cc1)[C@H](N2N=NC(C=3C=4C(=O)NC=NC4NC3)=C2)C] as the molecule, how does the inhibition at 1 µM read?
The inhibition at 1 µM was 41%.

How did the inhibition at 1 µM turn out when CN(CCn1cc(-c2c[nH]c3nc[nH]c(=O)c23)nn1)Cc1cccc(F)c1 [Compound 02H12, Fc1cc(ccc1)C[N@H+](CCN2N=NC(C=3C=4C(=O)NC=NC4NC3)=C2)C] was run?
Its inhibition at 1 µM is 65%.

With CS(=O)(=O)c1cc(Cn2cc(-c3c[nH]c4nc[nH]c(=O)c34)nn2)cc(C(F)(F)F)c1 [Compound 03A01, S(=O)(=O)(c1cc(cc(c1)CN2N=NC(C=3C=4C(=O)NC=NC4NC3)=C2)C(F)(F)F)C] as the molecule, how does the inhibition at 1 µM read?
Its inhibition at 1 µM is 63%.

For CN(C)CCn1cc(-c2c[nH]c3nc[nH]c(=O)c23)nn1 [Compound 03A02, O=C1NC=NC=2NC=C(C=3N=NN(C3)CC[NH+](C)C)C12], which inhibition at 1 µM is on record?
The inhibition at 1 µM was 44%.

How did the inhibition at 1 µM turn out when O=C(Cn1cc(-c2c[nH]c3nc[nH]c(=O)c23)nn1)NCc1ccccc1 [Compound 03A03, O=C1NC=NC=2NC=C(C=3N=NN(C3)CC(=O)NCc4ccccc4)C12] was run?
The inhibition at 1 µM was 36%.

For O=c1[nH]cnc2[nH]cc(-c3cn(-c4ccc(S(F)(F)(F)(F)F)cc4)nn3)c12 [Compound 03A04, S(F)(F)(F)(F)(F)c1ccc(N2N=NC(C=3C=4C(=O)NC=NC4NC3)=C2)cc1], which inhibition at 1 µM is on record?
The inhibition at 1 µM was 16%.

How did the inhibition at 1 µM turn out when O=C1NCCCC[C@H]1n1cc(-c2c[nH]c3nc[nH]c(=O)c23)nn1 [Compound 03A05, O=C1NC=NC=2NC=C(C=3N=NN(C3)[C@H]4C(=O)NCCCC4)C12] was run?
The inhibition at 1 µM was 40%.

For N#CCC1(Cn2cc(-c3c[nH]c4nc[nH]c(=O)c34)nn2)CC1 [Compound 03A06, O=C1NC=NC=2NC=C(C=3N=NN(C3)CC4(CC#N)CC4)C12], which inhibition at 1 µM is on record?
Its inhibition at 1 µM is 65%.

How did the inhibition at 1 µM turn out when O=c1[nH]cnc2[nH]cc(-c3cn(C[C@@H]4CC[C@@H]5C[C@@H]5C4)nn3)c12 [Compound 03A07, O=C1NC=NC=2NC=C(C=3N=NN(C3)C[C@H]4C[C@@H]5[C@@H](C5)CC4)C12] was run?
Its inhibition at 1 µM is 84%.

Which inhibition at 1 µM does the source give for O=c1[nH]cnc2[nH]cc(-c3cn(C[C@H]4C[C@@H]5C[C@@H]5C4)nn3)c12 [Compound 03A08, O=C1NC=NC=2NC=C(C=3N=NN(C3)C[C@@H]4C[C@@H]5[C@@H](C5)C4)C12] here?
The inhibition at 1 µM was 76%.

How did the inhibition at 1 µM turn out when O=c1[nH]cnc2[nH]cc(-c3cn(C[C@@H]4COCCO4)nn3)c12 [Compound 03A10, O=C1NC=NC=2NC=C(C=3N=NN(C3)C[C@H]4OCCOC4)C12] was run?
The inhibition at 1 µM was 57%.

O=c1[nH]cnc2[nH]cc(-c3cn(CC(F)(F)F)nn3)c12 [Compound 03A11, FC(F)(F)CN1N=NC(C=2C=3C(=O)NC=NC3NC2)=C1] was tested. Which inhibition at 1 µM did it give?
Its inhibition at 1 µM is 14%.

Which inhibition at 1 µM does the source give for O=c1[nH]cnc2[nH]cc(-c3cn([C@H]4CCCNCC4)nn3)c12 [Compound 03A12, O=C1NC=NC=2NC=C(C=3N=NN(C3)[C@@H]4CC[NH2+]CCC4)C12] here?
Its inhibition at 1 µM is 18%.

How did the inhibition at 1 µM turn out when O=c1[nH]cnc2[nH]cc(-c3cn(-c4cccc5ncccc45)nn3)c12 [Compound 03B01, O=C1NC=NC=2NC=C(C=3N=NN(c4c5c(nccc5)ccc4)C3)C12] was run?
Its inhibition at 1 µM is 20%.

For CC(CO)(CO)Cn1cc(-c2c[nH]c3nc[nH]c(=O)c23)nn1 [Compound 03B02, O=C1NC=NC=2NC=C(C=3N=NN(C3)CC(CO)(CO)C)C12], which inhibition at 1 µM is on record?
Its inhibition at 1 µM is 67%.

How did the inhibition at 1 µM turn out when O=c1[nH]cnc2[nH]cc(-c3cn(Cc4cc(-c5ccco5)on4)nn3)c12 [Compound 03B03, O=C1NC=NC=2NC=C(C=3N=NN(C3)CC4=NOC(C=5OC=CC5)=C4)C12] was run?
The inhibition at 1 µM was 49%.

How did the inhibition at 1 µM turn out when O=c1[nH]cnc2[nH]cc(-c3cn(CCn4cnc5ccccc54)nn3)c12 [Compound 03B04, O=C1NC=NC=2NC=C(C=3N=NN(C3)CCN4c5c(N=C4)cccc5)C12] was run?
Its inhibition at 1 µM is 71%.

Reference: paper PMC12751012, “Nanoscale Direct-to-Biology Optimization and Structural Insights into Selective S. aureus TrmD Inhibitors” (Journal of Medicinal Chemistry, 2025)
